The assay has as its target T1, full-length MALT1 protein His-MALT1(1-824) (Homo sapiens, UniProt Q9UDY8).
T1 construct: full-length MALT1 protein His-MALT1(1-824); His (N); made in house; host or cells: baculovirus-infected insect cells
T1 sequence (Q9UDY8 1-824): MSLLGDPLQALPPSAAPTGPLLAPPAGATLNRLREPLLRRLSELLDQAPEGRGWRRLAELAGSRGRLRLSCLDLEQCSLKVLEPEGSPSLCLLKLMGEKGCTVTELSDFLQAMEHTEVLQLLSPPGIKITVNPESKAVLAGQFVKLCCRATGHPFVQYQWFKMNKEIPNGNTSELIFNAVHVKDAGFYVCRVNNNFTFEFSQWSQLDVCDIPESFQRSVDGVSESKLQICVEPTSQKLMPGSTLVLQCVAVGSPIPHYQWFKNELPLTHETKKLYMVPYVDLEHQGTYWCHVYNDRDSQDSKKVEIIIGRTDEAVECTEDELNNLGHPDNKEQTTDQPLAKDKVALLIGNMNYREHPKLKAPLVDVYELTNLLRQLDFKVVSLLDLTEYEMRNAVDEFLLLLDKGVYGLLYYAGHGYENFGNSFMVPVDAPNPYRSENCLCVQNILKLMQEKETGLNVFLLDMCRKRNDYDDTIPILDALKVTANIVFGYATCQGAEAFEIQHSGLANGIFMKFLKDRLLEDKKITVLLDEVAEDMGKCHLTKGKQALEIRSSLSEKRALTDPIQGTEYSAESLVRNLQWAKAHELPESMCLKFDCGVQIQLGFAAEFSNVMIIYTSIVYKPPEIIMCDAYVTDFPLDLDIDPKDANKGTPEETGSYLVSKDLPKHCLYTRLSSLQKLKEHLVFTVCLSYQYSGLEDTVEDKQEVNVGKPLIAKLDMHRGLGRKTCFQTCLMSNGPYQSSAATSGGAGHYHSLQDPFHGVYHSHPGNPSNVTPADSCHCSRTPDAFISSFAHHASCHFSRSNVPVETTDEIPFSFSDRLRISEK
Briefly: MALT1 protease assay, Assay 2 (1 nM MALT1, Ac-LRSR-AMC substrate). The class given is biochemical. As to conditions: 1 nM MALT1, 50 μM Ac-LRSR-AMC, 2 h pre-incubation, 8 hr incubation at RT. How it is done: MALT1 protease activity was assessed in an in vitro assay using a tetrapeptide as substrate and full-length MALT1 protein His-MALT1(1-824) purified from baculovirus-infected insect cells. The tetrapeptide substrate is Ac-LRSR-AMC (SM Biochemicals) with Km measured at around 100 μM.
The final assay buffer includes 1 nM (Assay 2) or 2 nM (Assay 1) of MALT1 full-length protein, 50 μM Ac-LRSR-AMC substrate, 50 mM Tris pH 7.5, 600 mM Sodium Citrate, 1 mM DTT, 1 mM EDTA, and 0.05% BSA in 384-well plate format using black microtiter square well plates (Optiplate 384-F, Perkin Elmer).
Test compounds were dissolved in 100% DMSO at stock of 10 mM, with final DMSO concentration 0.1%. Test compounds were pre-incubated with MALT1 protein for 2 h at room temperature. Substrate was added after the pre-incubation and fluorescence signal was measured using Envision at excitation 355 nm and emission 460 nm after 8 hr incubation at RT. Increase in the assay signal was linear over this period and proportional with increase in the enzyme content.
The fluorescence units were transformed to percentage of remaining activity by using the high control (HC, median of fluorescence signal from wells containing MALT1 protein, substrate, and DMSO) and low control (LC, median of fluorescence signal from wells with substrate only) with the formula below: […]
IC50 and Hill coefficients were obtained using Graph Pad Prism (Graph Pad software, Inc, USA) with non-linear regression analysis.

The term IC50 denotes the midpoint of a concentration-inhibition curve. Read a low IC50 as higher potency.

In the case of `O=C(Nc1cnc(-n2nccn2)c(C(F)(F)F)c1)[C@H]1C[C@@]2(CCO2)c2c1cnc1cc(Cl)nn21` (racemic) [Example 116, (trans)-N-(6-(2H-1,2,3-triazol-2-yl)-5˜(trifluoromethyl)pyridin-3-yl)-2-chloro-6,7-dihydrospiro[cyclopenta[e]pyrazolo[1,5-a]pyrimidine-8,2′-oxetane]-6-carboxamide], the concentration for half-maximal inhibition (IC50) was in the range of 100 to 1000 nM. Then `O=C(Nc1cnc(-n2nccn2)c(C(F)(F)F)c1)[C@H]1C[C@]2(CCO2)c2c1cnc1cc(Cl)nn21` (racemic) [Example 117, (cis)-N-(6-(2H-1,2,3-triazol-2-yl)-5˜(trifluoromethyl)pyridin-3-yl)-2-chloro-6,7-dihydrospiro[cyclopenta[e]pyrazolo[1,5-a]pyrimidine-8,2′-oxetane]-6-carboxamide], with 10 to 100 nM; and `CC1(C)C[C@@H](C(=O)Nc2cnc(-n3nccn3)c(C(F)(F)F)c2)c2cnc3cc(Cl)nn3c21` (single isomer, unassigned) [Example 45, N-(6-(2H-1,2,3-triazol-2-yl)-5˜(trifluoromethyl)pyridin-3-yl)-2-chloro-8,8-dimethyl-7,8-dihydro-6H-cyclopenta[e]pyrazolo[1,5-a]pyrimidine-6-carboxamide], with at least 1000 nM; and `CC1(C)C[C@@H](C(=O)Nc2cnc(-n3nccn3)c(C(F)F)c2)c2cnc3cc(Cl)nn3c21` (single isomer, unassigned) [Example 46, 2-chloro-N-(5-(difluoromethyl)-6-(2H-1,2,3-triazol-2-yl)pyridin-3-yl)-8,8-dimethyl-7,8-dihydro-6H-cyclopenta[e]pyrazolo[1,5-a]pyrimidine-6-carboxamide], with at least 1000 nM. Then `C[C@H](O)c1cnn(-c2ncc(NC(=O)[C@@H]3CC(C)(C)c4c3cnc3cc(Cl)nn43)cc2Cl)n1` (single isomer, unassigned) [Example 50, 2-chloro-N-(5-chloro-6-(4-(1-hydroxyethyl)-2H-1,2,3-triazol-2-yl)pyridin-3-yl)-8,8-dimethyl-7,8-dihydro-6H-cyclopenta[e]pyrazolo[1,5-a]pyrimidine-6-carboxamide], with at least 1000 nM. Then `C[C@@H](O)c1cnn(-c2ncc(NC(=O)[C@@H]3CC(C)(C)c4c3cnc3cc(Cl)nn43)cc2Cl)n1` (single isomer, unassigned) [Example 52, 2-chloro-N-(5-chloro-6-(4-(1-hydroxyethyl)-2H-1,2,3-triazol-2-yl)pyridin-3-yl)-8,8-dimethyl-7,8-dihydro-6H-cyclopenta[e]pyrazolo[1,5-a]pyrimidine-6-carboxamide], with 100 to 1000 nM; and `C[C@@]1(C(F)(F)F)C[C@@H](C(=O)Nc2cnc(-n3nccn3)c(C(F)(F)F)c2)c2cnc3cc(Cl)nn3c21` (single isomer, unassigned) [Example 53, N-(6-(2H-1,2,3-triazol-2-yl)-5˜(trifluoromethyl)pyridin-3-yl)-2-chloro-8-methyl-8-(trifluoromethyl)-7,8-dihydro-6H-cyclopenta[e]pyrazolo[1,5-a]pyrimidine-6-carboxamide], with 100 to 1000 nM; and `C[C@]1(C(F)(F)F)C[C@@H](C(=O)Nc2cnc(-n3nccn3)c(C(F)(F)F)c2)c2cnc3cc(Cl)nn3c21` (single isomer, unassigned) [Example 55, N-(6-(2H-1,2,3-triazol-2-yl)-5˜(trifluoromethyl)pyridin-3-yl)-2-chloro-8-methyl-8-(trifluoromethyl)-7,8-dihydro-6H-cyclopenta[e]pyrazolo[1,5-a]pyrimidine-6-carboxamide], with 10 to 100 nM. The compound `CC1(C)C[C@@H](C(=O)Nc2cc(C(F)F)c(-c3ncco3)c(=O)[nH]2)c2cnc3cc(Cl)nn3c21` (single isomer, unassigned) [Example 57, 2-chloro-N-(4-(difluoromethyl)-5˜(oxazol-2-yl)-6-oxo-1,6-dihydropyridin-2-yl)-8,8-dimethyl-7,8-dihydro-6H-cyclopenta[e]pyrazolo[1,5-a]pyrimidine-6-carboxamide] returned an IC50 of 100 to 1000 nM.

Take `CC1(C)C[C@H](C(=O)Nc2cc(C(F)F)c(-c3ncco3)c(=O)[nH]2)c2cnc3cc(Cl)nn3c21` (single isomer, unassigned) [Example 58, 2-chloro-N-(4-(difluoromethyl)-5˜(oxazol-2-yl)-6-oxo-1,6-dihydropyridin-2-yl)-8,8-dimethyl-7,8-dihydro-6H-cyclopenta[e]pyrazolo[1,5-a]pyrimidine-6-carboxamide]: the IC50 fell in the range of 10 to 100 nM. Then `C[C@]1(C(F)(F)F)C[C@@H](C(=O)Nc2cnc(-n3nccn3)c(C(F)F)c2)c2cnc3cc(Cl)nn3c21` (single isomer, unassigned) [Example 63, 2-chloro-N-(5-(difluoromethyl)-6-(2H-1,2,3-triazol-2-yl)pyridin-3-yl)-8-methyl-8-(trifluoromethyl)-7,8-dihydro-6H-cyclopenta[e]pyrazolo[1,5-a]pyrimidine-6-carboxamide], with 100 to 1000 nM; and `C[C@@]1(C(F)(F)F)C[C@@H](C(=O)Nc2cnc(-n3nccn3)c(C(F)F)c2)c2cnc3cc(Cl)nn3c21` (single isomer, unassigned) [Example 65, 2-chloro-N-(5-(difluoromethyl)-6-(2H-1,2,3-triazol-2-yl)pyridin-3-yl)-8-methyl-8-(trifluoromethyl)-7,8-dihydro-6H-cyclopenta[e]pyrazolo[1,5-a]pyrimidine-6-carboxamide], with 100 to 1000 nM. Then `CC1(C)CC(C(=O)Nc2cnc(OC(F)F)c(Cl)c2)c2cnc3cc(Cl)nn3c21` (single isomer, unassigned) [Example 67, 2-chloro-N-(5-chloro-6-(difluoromethoxy)pyridin-3-yl)-8,8-dimethyl-7,8-dihydro-6H-cyclopenta[e]pyrazolo[1,5-a]pyrimidine-6-carboxamide], with 100 to 1000 nM; and `CC1(C)OC(C(=O)Nc2cnc(-n3nccn3)c(Cl)c2)c2cnc3cc(Cl)nn3c21` (single isomer, unassigned) [Example 70, 2-chloro-N-(5-chloro-6-(2H-1,2,3-triazol-2-yl)pyridin-3-yl)-8,8-dimethyl-6,8-dihydrofuro[3,4-e]pyrazolo[1,5-a]pyrimidine-6-carboxamide], with at least 1000 nM. The compound `CC1(C)O[C@H](C(=O)Nc2cnc(-n3nccn3)c(Cl)c2)c2cnc3cc(Cl)nn3c21` (single isomer, unassigned) [Example 71, 2-chloro-N-(5-chloro-6-(2H-1,2,3-triazol-2-yl)pyridin-3-yl)-8,8-dimethyl-6,8-dihydrofuro[3,4-e]pyrazolo[1,5-a]pyrimidine-6-carboxamide] had a concentration for half-maximal inhibition (IC50) of 100 to 1000 nM. Under `CN(C(=O)c1ncc(NC(=O)[C@@H]2CC(C)(C)c3c2cnc2cc(Cl)nn32)cc1C(F)F)C1CC1` (single isomer, unassigned) [Example 72, 2-chloro-N-(6-(cyclopropyl(methyl)carbamoyl)-5-(difluoromethyl)pyridin-3-yl)-8,8-dimethyl-7,8-dihydro-6H-cyclopenta[e]pyrazolo[1,5-a]pyrimidine-6-carboxamide] stands at least 1000 nM; under `CC1(C)CC(C(=O)Nc2cnc(OC3CC3)c(Cl)c2)c2cnc3cc(Cl)nn3c21` (single isomer, unassigned) [Example 74, 2-chloro-N-(5-chloro-6-cyclopropoxypyridin-3-yl)-8,8-dimethyl-7,8-dihydro-6H-cyclopenta[e]pyrazolo[1,5-a]pyrimidine-6-carboxamide], at least 1000 nM; under `CC1(C)CC(C(=O)Nc2cnc(OC(F)F)c(Cl)c2)c2cnc3cc(F)nn3c21` (single isomer, unassigned) [Example 76, N-(5-chloro-6-(difluoromethoxy)pyridin-3-yl)-2-fluoro-8,8-dimethyl-7,8-dihydro-6H-cyclopenta[e]pyrazolo[1,5-a]pyrimidine-6-carboxamide], at least 1000 nM.

These data come from patent US12667572B2, “Tricyclic compounds useful in the treatment of cancer, autoimmune and inflammatory disorders” (SCHRÖDINGER, INC., priority 2021, dated 2026).
